Test results taken from US7973219B2, “Method for producing transgenic plants resistant to weed control compounds which disrupt the porphyrin pathways of plants” (Sumitomo Chemical Company, Limited, priority 1998, dated 2011).
Read-outs that look alike come from different tables or passages of the source.

Legend:
[1] = test system: E. coli BT3/pACYCSP+pTVBCH strain; assay: Growth of E. coli BT3/pACYCSP+pTVBCH (bchH) with herbicidal compound; type: cell-based; settings: Escherichia coli, 18 h, 18 hours culture, Table 2
From the text: According to the description of Gibson, L. C. D. et al., Proc. Natl. Acad. Sci. USA, 92; p 1941 (1995), the DNA fragment containing bchH gene prepared in Example 1 was digested with the restriction enzymes NdeI and BglII. The resultant DNA fragment was inserted between NdeI restriction site and BamHI restriction site of expression vector pET11a (manufactured by Stratagene) to obtain plasmid pETBCH (FIG. 1). This plasmid pETBCH was introduced into E. coli BL21(DE3) strain competent cells (manufactured by Stratagene) according to the manual attached to the competent cells to obtain E. coli BL21(DE3)/pETBCH strain. The strain was inoculated into 1.5 ml LB liquid culture medium (1% tryptone, 0.5% yeast extract, 0.5% NaCl) containing 100 μg/ml ampicillin in a tube (14×10 mm), and the tube was covered with aluminum foil (hereinafter referred to as dark conditions), cultured with shaking at 37° C. under light of fluorescent lamp (about 8000 lux). When the absorbance at 600 nm of the liquid culture medium became about 0.6, isopropyl β-D-thiogalactopyranoside (IPTG) was added to the liquid culture medium so that the final concentration was 0.4 mM, and the culture was continued for about additional 20 hours. […] In contrast to this, when E. coli BL21(DE3)/pETBCH strain was cultured according to the same manner (with IPTG) except that the tube was not covered with aluminum foil (hereinafter referred to as light conditions), E. coli grew and turned red as above. […]
(§1) These strains were inoculated into YPT medium containing 10 or 1 ppm of the PPO inhibitory-type herbicidal compound represented by the above Structure 8, 100 μg/ml ampicillin, 15 μg/ml chloramphenicol, 10 μg/ml kanamycin, 10 μg/ml hemin and 50 μg/ml aminolevulinic acid, cultured under dark conditions or light conditions according to the same manner as in Example 2. Then, 18 hours after initiation of culture, the absorbance of the liquid culture medium was measured at 600 nm. By taking the absorbance of the medium without the herbicidal compound as 1, the relative value of the absorbance of the medium containing the herbicidal compound was calculated.
(§2) Further, these strains were inoculated into YPT medium containing PPO inhibitory-type herbicidal compounds represented by the above Structures 1, 14, 15, 18-22, 29, 32, 33, 34 and 36, respectively, 100 μg/ml ampicillin, 15 μg/ml chloramphenicol, 10 μg/ml kanamycin, 10 μg/ml hemin and 50 μg/ml aminolevulinic acid, cultured under dark conditions or light conditions similar to the Example 2. Then, 18 hours after initiation of culture, the absorbance of liquid culture medium was measured at 600 nm. By taking the absorbance of the medium without the herbicidal compound as 1, the relative value of the absorbance of the medium containing the herbicidal compound was calculated.

[2] = test system: E. coli BT3/pACYCSP+pTV118N strain; assay: Growth of E. coli BT3/pACYCSP+pTV118N (vector control) with herbicidal compound; type: cell-based; settings: Escherichia coli, 18 h, 18 hours culture
From the text: According to the description of Gibson, L. C. D. et al., Proc. Natl. Acad. Sci. USA, 92; p 1941 (1995), the DNA fragment containing bchH gene prepared in Example 1 was digested with the restriction enzymes NdeI and BglII. The resultant DNA fragment was inserted between NdeI restriction site and BamHI restriction site of expression vector pET11a (manufactured by Stratagene) to obtain plasmid pETBCH (FIG. 1). This plasmid pETBCH was introduced into E. coli BL21(DE3) strain competent cells (manufactured by Stratagene) according to the manual attached to the competent cells to obtain E. coli BL21(DE3)/pETBCH strain. The strain was inoculated into 1.5 ml LB liquid culture medium (1% tryptone, 0.5% yeast extract, 0.5% NaCl) containing 100 μg/ml ampicillin in a tube (14×10 mm), and the tube was covered with aluminum foil (hereinafter referred to as dark conditions), cultured with shaking at 37° C. under light of fluorescent lamp (about 8000 lux). When the absorbance at 600 nm of the liquid culture medium became about 0.6, isopropyl β-D-thiogalactopyranoside (IPTG) was added to the liquid culture medium so that the final concentration was 0.4 mM, and the culture was continued for about additional 20 hours. […] In contrast to this, when E. coli BL21(DE3)/pETBCH strain was cultured according to the same manner (with IPTG) except that the tube was not covered with aluminum foil (hereinafter referred to as light conditions), E. coli grew and turned red as above.
Plasmids pTVBCH and pTV118N respectively were introduced into E. coli BT3/pACYCSP strain prepared in Example 3 according to the method described in Hanahan, D. J., Mol. Biol., 166; p 557 (1983). The resultant E. coli were cultured in YPT medium containing 100 μg/ml ampicillin, 15 μg/ml chloramphenicol and 10 μg/ml kanamycin to obtain E. coli BT3/pACYCSP+pTVBCH strain bearing plasmids pACYCSP and pTVBCH, and E. coli BT3/pACYCSP+pTV118N strain bearing plasmids pACYCSP and pTV118N.
as §1, §2
Plasmids pTVGMP and pTV118N prepared in Example 11 were introduced into E. coli BT3/pACYCSP strain prepared in Example 3 respectively according to the method described in Flanahan, D. J., Mol. Biol., 166; p 557 (1983). E. coli BT3/pACYCSP+pTVGMP strain bearing plasmids pACYCSP and pTVGMP, and E. coli BT3/pACYCSP+pTV118N strain bearing plasmids pACYCSP and pTV118N were obtained by culturing the above strains in YPT medium containing 100 μg/ml ampicillin, 15 μg/ml chloramphenicol and 10 μg/ml kanamycin. […]

[3] = test system: E. coli BT3/pACYCSP+pYAGY strain; assay: Growth of E. coli BT3/pACYCSP+pYAGY with herbicidal compound; type: cell-based, Escherichia coli; settings: 1 ppm, 18 hours culture, Table 15
[4] = read-out: Relative absorbance, in the dark
[5] = read-out: Relative absorbance, in the light
[6] = read-out: Relative absorbance, in the dark, Table 2
[7] = read-out: Relative absorbance, in the dark, Table 7 (Example 12)
[8] = read-out: Relative absorbance, in the dark, Table 9 (Example 17)
[9] = read-out: Relative absorbance, in the dark, Table 11 (Example 20)
[10] = read-out: Relative absorbance, in the dark, Table 13 (Example 23)
[11] = read-out: Relative absorbance, in the dark, Table 14 (Example 27)
[12] = read-out: Relative absorbance, in the light, Table 2
[13] = read-out: Relative absorbance, in the light, Table 7 (Example 12)
[14] = read-out: Relative absorbance, in the light, Table 9 (Example 17)
[15] = read-out: Relative absorbance, in the light, Table 11 (Example 20)
[16] = read-out: Relative absorbance, in the light, Table 13 (Example 23)
[17] = read-out: Relative absorbance, in the light, Table 14 (Example 27)

Q: Which activity at 1 ppm [1, 4] does the source give for `C#CCOc1cc(N2C(=O)C3=C(CCCC3)C2=O)c(F)cc1Cl` [Structure 8] here?
A: The activity at 1 ppm was 106%.

Q: What about the activity at 10 ppm [1, 4] of the same compound?
A: The activity at 10 ppm was 90%.

Q: What about the activity at 1 ppm [1, 5] of the same compound?
A: Its activity at 1 ppm is 77%.

Q: What about the activity at 10 ppm [1, 5] of the same compound?
A: Its activity at 10 ppm is 80%.

Q: What about the activity at 1 ppm [2, 6] of the same compound?
A: Its activity at 1 ppm is 77%.

Q: And the activity at 1 ppm [2, 7]?
A: The activity at 1 ppm was 91%.

Q: What about the activity at 1 ppm [2, 8] of the same compound?
A: Its activity at 1 ppm is 91%.

Q: What about the activity at 1 ppm [2, 9] of the same compound?
A: Its activity at 1 ppm is 91%.

Q: And the activity at 1 ppm [2, 10]?
A: Its activity at 1 ppm is 91%.

Q: And the activity at 1 ppm [2, 11]?
A: Its activity at 1 ppm is 98%.

Q: What about the activity at 1 ppm ([2]; read-out: Relative absorbance, in the dark, Table 15 (Example 31)) of the same compound?
A: Its activity at 1 ppm is 93%.

Q: What about the activity at 1 ppm ([2]; read-out: Relative absorbance, in the dark, Table 16 (Example 31)) of the same compound?
A: The activity at 1 ppm was 81%.

Q: And the activity at 10 ppm [2, 6]?
A: The activity at 10 ppm was 68%.

Q: And the activity at 10 ppm [2, 7]?
A: Its activity at 10 ppm is 89%.

Q: And the activity at 10 ppm [2, 8]?
A: The activity at 10 ppm was 80%.

Q: And the activity at 10 ppm [2, 9]?
A: Its activity at 10 ppm is 80%.

Q: And the activity at 10 ppm [2, 10]?
A: Its activity at 10 ppm is 81%.

Q: What about the activity at 10 ppm [2, 11] of the same compound?
A: Its activity at 10 ppm is 96%.

Q: And the activity at 1 ppm [2, 12]?
A: Its activity at 1 ppm is 31%.

Q: What about the activity at 1 ppm [2, 13] of the same compound?
A: Its activity at 1 ppm is 9%.

Q: And the activity at 1 ppm [2, 14]?
A: Its activity at 1 ppm is 24%.

Q: What about the activity at 1 ppm [2, 15] of the same compound?
A: The activity at 1 ppm was 24%.

Q: What about the activity at 1 ppm [2, 16] of the same compound?
A: Its activity at 1 ppm is 8%.

Q: What about the activity at 1 ppm [2, 17] of the same compound?
A: Its activity at 1 ppm is 16%.

Q: And the activity at 1 ppm ([2]; read-out: Relative absorbance, in the light, Table 15 (Example 31))?
A: The activity at 1 ppm was 7%.

Q: And the activity at 1 ppm ([2]; read-out: Relative absorbance, in the light, Table 16 (Example 31))?
A: The activity at 1 ppm was 15%.

Q: And the activity at 10 ppm [2, 12]?
A: The activity at 10 ppm was 18%.

Q: And the activity at 10 ppm [2, 13]?
A: The activity at 10 ppm was 5%.

Q: And the activity at 10 ppm [2, 14]?
A: Its activity at 10 ppm is 12%.

Q: What about the activity at 10 ppm [2, 15] of the same compound?
A: The activity at 10 ppm was 12%.

Q: And the activity at 10 ppm [2, 16]?
A: Its activity at 10 ppm is 6%.

Q: What about the activity at 10 ppm [2, 17] of the same compound?
A: Its activity at 10 ppm is 6%.

Q: What about the Relative absorbance ([3]; in the dark) of the same compound?
A: The Relative absorbance was 0.99.

Q: And the Relative absorbance ([3]; in the light)?
A: Its Relative absorbance is 0.48.
